Data: ChEMBL document CHEMBL1157156, “A novel sesquiterpene lactone from Centaurea pullata: structure elucidation, antimicrobial activity, and prediction of pharmacokinetic properties” (2008)
In brackets after ≈: the same amount, converted by molar mass.

Columns and labels:
[1] = system: Bacillus subtilis; assay: Antimicrobial activity against Bacillus subtilis ATCC 10907 by serial dilution technique; assay type: functional
[2] = system: Micrococcus luteus; assay: Antimicrobial activity against Micrococcus flavus ATCC 10240 by serial dilution technique; assay type: functional
[3] = system: Staphylococcus epidermidis; assay: Antimicrobial activity against Staphylococcus epidermidis ATCC 12228 by serial dilution technique; assay type: functional
[4] = system: Escherichia coli; assay: Antimicrobial activity against Escherichia coli ATCC 35210 by serial dilution technique; assay type: functional
[5] = system: Pseudomonas tolaasii; assay: Antimicrobial activity against Pseudomonas tolaasii by serial dilution technique; assay type: functional
[6] = system: Salmonella enteritidis; assay: Antimicrobial activity against Salmonella enteritidis ATCC 13076 by serial dilution technique; assay type: functional, Salmonella enterica subsp. enterica serovar Enteritidis; details: Salmonella enterica
[7] = system: Alternaria alternata; assay: Antimicrobial activity against Alternaria alternata DMS2006 by serial dilution technique; assay type: functional
[8] = system: Aspergillus flavus; assay: Antimicrobial activity against Aspergillus flavus ATCC 9643 by serial dilution technique; assay type: functional
[9] = system: Aspergillus niger; assay: Antimicrobial activity against Aspergillus niger ATCC 6275 by serial dilution technique; assay type: functional
[10] = system: Aspergillus ochraceus; assay: Antimicrobial activity against Aspergillus ochraceus ATCC 12066 by serial dilution technique; assay type: functional
[11] = system: Fusarium tricinctum; assay: Antimicrobial activity against Fusarium tricinctum by serial dilution technique; assay type: functional
[12] = system: Talaromyces funiculosus; assay: Antimicrobial activity against Penicillium funiculosum ATCC 36839 by serial dilution technique; assay type: functional
[13] = system: Penicillium ochrochloron; assay: Antimicrobial activity against Penicillium ochrochloron ATCC 9112 by serial dilution technique; assay type: functional
[14] = system: Trichoderma viride; assay: Antimicrobial activity against Trichoderma viride IAM5061 by serial dilution technique; assay type: functional

Structure (SMILES) | MBC [1] | MIC [1] | MBC [2] | MIC [2] | MBC [3] | MIC [3] | MIC [4] | MBC [5] | MIC [5] | MBC [6] | MIC [6] | MFC [7] | MIC [7] | MFC [8] | MIC [8] | MFC [9] | MIC [9] | MFC [10] | MIC [10] | MFC [11] | further results
C/C1=C\CC/C(CO)=C/[C@H]2OC(=O)[C@@H](C)[C@@H]2[C@@H](O)C1 | 1.1 µM (≈ 0.293 µg/mL) | 0.8 µM (≈ 0.213 µg/mL) | 1.1 µM (≈ 0.293 µg/mL) | 1.1 µM (≈ 0.293 µg/mL) | 1.9 µM (≈ 0.506 µg/mL) | 1.5 µM (≈ 0.4 µg/mL) | 1.5 µM (≈ 0.4 µg/mL) | 0.8 µM (≈ 0.213 µg/mL) | 0.8 µM (≈ 0.213 µg/mL) | 1.5 µM (≈ 0.4 µg/mL) | 1.1 µM (≈ 0.293 µg/mL) | 0.7 µM (≈ 0.186 µg/mL) | 0.7 µM (≈ 0.186 µg/mL) | 0.7 µM (≈ 0.186 µg/mL) | 0.3 µM (≈ 0.0799 µg/mL) | 0.7 µM (≈ 0.186 µg/mL) | 0.7 µM (≈ 0.186 µg/mL) | 0.7 µM (≈ 0.186 µg/mL) | 0.7 µM (≈ 0.186 µg/mL) | 0.7 µM (≈ 0.186 µg/mL) | MIC [11]: 0.7 µM (≈ 0.186 µg/mL); MFC [12]: 0.7 µM (≈ 0.186 µg/mL); MIC [12]: 0.7 µM (≈ 0.186 µg/mL); MFC [13]: 0.7 µM (≈ 0.186 µg/mL); MIC [13]: 0.7 µM (≈ 0.186 µg/mL); MFC [14]: 0.7 µM (≈ 0.186 µg/mL); MIC [14]: 0.3 µM (≈ 0.0799 µg/mL)
C=C[C@]1(C)C[C@H](O)[C@@H]2[C@H](OC(=O)[C@H]2C)[C@H]1C(=C)CO | 2.3 µM (≈ 0.613 µg/mL) | 1.5 µM (≈ 0.4 µg/mL) | 2.3 µM (≈ 0.613 µg/mL) | 2.3 µM (≈ 0.613 µg/mL) | 2.3 µM (≈ 0.613 µg/mL) | 2.3 µM (≈ 0.613 µg/mL) | 2.3 µM (≈ 0.613 µg/mL) | 2.3 µM (≈ 0.613 µg/mL) | 2.3 µM (≈ 0.613 µg/mL) | 2.3 µM (≈ 0.613 µg/mL) | 2.3 µM (≈ 0.613 µg/mL) | 0.7 µM (≈ 0.186 µg/mL) | 0.7 µM (≈ 0.186 µg/mL) | 0.7 µM (≈ 0.186 µg/mL) | 0.7 µM (≈ 0.186 µg/mL) | 0.7 µM (≈ 0.186 µg/mL) | 0.7 µM (≈ 0.186 µg/mL) | 0.7 µM (≈ 0.186 µg/mL) | 0.7 µM (≈ 0.186 µg/mL) | 0.7 µM (≈ 0.186 µg/mL) | MIC [11]: 0.7 µM (≈ 0.186 µg/mL); MFC [12]: 0.7 µM (≈ 0.186 µg/mL); MIC [12]: 0.7 µM (≈ 0.186 µg/mL); MFC [13]: 0.7 µM (≈ 0.186 µg/mL); MIC [13]: 0.7 µM (≈ 0.186 µg/mL); MFC [14]: 0.7 µM (≈ 0.186 µg/mL); MIC [14]: 0.3 µM (≈ 0.0799 µg/mL)
C[C@@H]1C(=O)O[C@@H]2C3[C@H](C=O)CCC[C@]3(C)C[C@H](O)[C@@H]12 (some centres not stated) | 0.5 µM (≈ 0.133 µg/mL) | 0.3 µM (≈ 0.0799 µg/mL) | 0.7 µM (≈ 0.186 µg/mL) | 0.5 µM (≈ 0.133 µg/mL) | 1.1 µM (≈ 0.293 µg/mL) | 0.7 µM (≈ 0.186 µg/mL) | 0.5 µM (≈ 0.133 µg/mL) | 1.1 µM (≈ 0.293 µg/mL) | 0.7 µM (≈ 0.186 µg/mL) | 0.5 µM (≈ 0.133 µg/mL) | 0.3 µM (≈ 0.0799 µg/mL) | 0.2 µM (≈ 0.0533 µg/mL) | 0.2 µM (≈ 0.0533 µg/mL) | 0.4 µM (≈ 0.107 µg/mL) | 0.2 µM (≈ 0.0533 µg/mL) | 0.6 µM (≈ 0.16 µg/mL) | 0.6 µM (≈ 0.16 µg/mL) | 0.4 µM (≈ 0.107 µg/mL) | 0.4 µM (≈ 0.107 µg/mL) | 0.4 µM (≈ 0.107 µg/mL) | MIC [11]: 0.2 µM (≈ 0.0533 µg/mL); MFC [12]: 0.6 µM (≈ 0.16 µg/mL); MIC [12]: 0.4 µM (≈ 0.107 µg/mL); MFC [13]: 0.4 µM (≈ 0.107 µg/mL); MIC [13]: 0.4 µM (≈ 0.107 µg/mL); MFC [14]: 0.4 µM (≈ 0.107 µg/mL); MIC [14]: 0.4 µM (≈ 0.107 µg/mL)
C=C[C@]1(C)C[C@H](OC(=O)C(=C)CCO)[C@@H]2[C@H](OC(=O)[C@H]2C)[C@H]1C(=C)CO | 0.4 µM (≈ 0.146 µg/mL) | 0.2 µM (≈ 0.0729 µg/mL) | 0.5 µM (≈ 0.182 µg/mL) | 0.4 µM (≈ 0.146 µg/mL) | 0.8 µM (≈ 0.292 µg/mL) | 0.5 µM (≈ 0.182 µg/mL) | 0.4 µM (≈ 0.146 µg/mL) | 0.8 µM (≈ 0.292 µg/mL) | 0.5 µM (≈ 0.182 µg/mL) | 0.4 µM (≈ 0.146 µg/mL) | 0.2 µM (≈ 0.0729 µg/mL) | 0.1 µM (≈ 0.0364 µg/mL) | 0.1 µM (≈ 0.0364 µg/mL) | 0.2 µM (≈ 0.0729 µg/mL) | 0.1 µM (≈ 0.0364 µg/mL) | 0.3 µM (≈ 0.109 µg/mL) | 0.3 µM (≈ 0.109 µg/mL) | 0.2 µM (≈ 0.0729 µg/mL) | 0.2 µM (≈ 0.0729 µg/mL) | 0.2 µM (≈ 0.0729 µg/mL) | MIC [11]: 0.1 µM (≈ 0.0364 µg/mL); MFC [12]: 0.3 µM (≈ 0.109 µg/mL); MIC [12]: 0.2 µM (≈ 0.0729 µg/mL); MFC [13]: 0.2 µM (≈ 0.0729 µg/mL); MIC [13]: 0.2 µM (≈ 0.0729 µg/mL); MFC [14]: 0.2 µM (≈ 0.0729 µg/mL); MIC [14]: 0.2 µM (≈ 0.0729 µg/mL)
C[C@@H]1C(=O)O[C@H]2[C@H]1[C@@H](O)C[C@]1(C)[C@@H]2[C@@H](C=O)CC[C@H]1O | 0.7 µM (≈ 0.198 µg/mL) | 0.7 µM (≈ 0.198 µg/mL) | 0.7 µM (≈ 0.198 µg/mL) | 0.7 µM (≈ 0.198 µg/mL) | 1.4 µM (≈ 0.395 µg/mL) | 1 µM (≈ 0.282 µg/mL) | 1 µM (≈ 0.282 µg/mL) | 0.7 µM (≈ 0.198 µg/mL) | 0.7 µM (≈ 0.198 µg/mL) | 1 µM (≈ 0.282 µg/mL) | 0.7 µM (≈ 0.198 µg/mL) | 0.3 µM (≈ 0.0847 µg/mL) | 0.3 µM (≈ 0.0847 µg/mL) | 0.3 µM (≈ 0.0847 µg/mL) | 0.3 µM (≈ 0.0847 µg/mL) | 0.3 µM (≈ 0.0847 µg/mL) | 0.3 µM (≈ 0.0847 µg/mL) | 0.3 µM (≈ 0.0847 µg/mL) | 0.3 µM (≈ 0.0847 µg/mL) | 0.3 µM (≈ 0.0847 µg/mL) | MIC [11]: 0.3 µM (≈ 0.0847 µg/mL); MFC [12]: 0.7 µM (≈ 0.198 µg/mL); MIC [12]: 0.7 µM (≈ 0.198 µg/mL); MFC [13]: 0.7 µM (≈ 0.198 µg/mL); MIC [13]: 0.3 µM (≈ 0.0847 µg/mL); MFC [14]: 0.7 µM (≈ 0.198 µg/mL); MIC [14]: 0.7 µM (≈ 0.198 µg/mL)
Clc1ccc(COC(Cn2ccnc2)c2ccc(Cl)cc2Cl)c(Cl)c1 (configuration not stated) [MICONAZOLE] | – | – | – | – | – | – | – | – | – | – | – | 2 µM (≈ 0.832 µg/mL) | 0.4 µM (≈ 0.166 µg/mL) | 4 µM (≈ 1.66 µg/mL) | 1 µM (≈ 0.416 µg/mL) | 8 µM (≈ 3.33 µg/mL) | 3 µM (≈ 1.25 µg/mL) | 8 µM (≈ 3.33 µg/mL) | 3 µM (≈ 1.25 µg/mL) | 2 µM (≈ 0.832 µg/mL) | MIC [11]: 0.4 µM (≈ 0.166 µg/mL); MFC [12]: 10 µM (≈ 4.16 µg/mL); MIC [12]: 4 µM (≈ 1.66 µg/mL); MFC [13]: 10 µM (≈ 4.16 µg/mL); MIC [13]: 4 µM (≈ 1.66 µg/mL); MFC [14]: 4 µM (≈ 1.66 µg/mL); MIC [14]: 4 µM (≈ 1.66 µg/mL)
CN[C@@H]1[C@H](O[C@H]2[C@H](O[C@H]3[C@H](O)[C@@H](O)[C@H](N=C(N)N)[C@@H](O)[C@@H]3N=C(N)N)O[C@@H](C)[C@]2(O)C=O)O[C@@H](CO)[C@H](O)[C@H]1O [STREPTOMYCIN] | 0.8 µM (≈ 0.465 µg/mL) | 0.8 µM (≈ 0.465 µg/mL) | 1.6 µM (≈ 0.931 µg/mL) | 0.8 µM (≈ 0.465 µg/mL) | 1.6 µM (≈ 0.931 µg/mL) | 1.6 µM (≈ 0.931 µg/mL) | 0.8 µM (≈ 0.465 µg/mL) | 1.6 µM (≈ 0.931 µg/mL) | 1.6 µM (≈ 0.931 µg/mL) | 1.6 µM (≈ 0.931 µg/mL) | 1.6 µM (≈ 0.931 µg/mL) | – | – | – | – | – | – | – | – | – | –
